Measured values from the CombiSolv-Exp solvation set (Vermeire and Green 2021).

Test: solvent given as SMILES

COc1ccc2cc(C(C)C(=O)O)ccc2c1 (stereo not drawn)
Details | solvation free energy, 298 K [kcal/mol]
in C1CCOC1 | -17.9
in C1COCCO1 | -17.7
in CC(C)CCO | -16.4
in CC(C)CO | -16.3
in CC(C)O | -16.6
in CCC(C)O | -16.6
in CCCC(C)O | -16.5
in CCCCCCCCCCO | -16.2
in CCCCCCCO | -16.5
in CCCCCCO | -16.5
in CCCCCO | -16.5
in CCCCO | -16.6
in CCCCOC(C)=O | -16.6
in CCCO | -16.6
in CCO | -16.7
in CCOC(C)=O | -17.1
in CCOCC | -16.7
in CO | -16.7
in COC(C)=O | -17

CN1C2CCC1CC(OC(=O)C(O)c1ccccc1)C2 (stereo not drawn)
Details | solvation free energy, 298 K [kcal/mol]
in O | -13.8

Nc1ccccc1
Details | solvation free energy, 298 K [kcal/mol]
in CC(C)=O | -7.84
in CC(C)CC(C)(C)C | -5.2
in CCCCCC | -5.43
in CCCCCCC | -5.38
in CCCCCCCC | -4.84
in CCCCCCCCCCCCCCCC | -5.36
in CCCCCl | -6.67
in CCOC(C)=O | -7.49
in O | -5.77

CC1CCC(C(C)C)C(=O)C1 (stereo not drawn)
Details | solvation free energy, 298 K [kcal/mol]
in O | -2.53

CCCCCNCc1ccc(C)cc1
Details | solvation free energy, 298 K [kcal/mol]
in O | -5.21

O=C(O)CCc1ccccc1
Details | solvation free energy, 298 K [kcal/mol]
in O | -9

Clc1ccc(Cl)c(-c2cc(Cl)c(Cl)c(Cl)c2)c1
Details | solvation free energy, 298 K [kcal/mol]
in O | -3.61

c1ccc2c(c1)ccc1ccccc12
Details | solvation free energy, 298 K [kcal/mol]
in C1CCOC1 | -11.5
in C1COCCO1 | -11.3
in CC(=O)N(C)C | -11.4
in CC(C)(C)O | -9.55
in CC(C)=O | -11.3
in CC(C)CC(C)(C)C | -9.75
in CC(C)CC(C)O | -9.7
in CC(C)CCO | -9.73
in CC(C)CO | -9.56
in CC(C)O | -9.64
in CCC(C)(C)O | -9.84
in CCC(C)O | -9.64
in CCCC(C)CO | -9.72
in CCCC(C)O | -9.79
in CCCCC(CC)CO | -9.87
in CCCCCC | -10
in CCCCCCC | -10.1
in CCCCCCCC | -10.1
in CCCCCCCCC=CCCCCCCCC(=O)OCC(COC(=O)CCCCCCCC=CCCCCCCCC)OC(=O)CCCCCCCC=CCCCCCCCC | -10.6
in CCCCCCCCCC | -10.1
in CCCCCCCCO | -10.3
in CCCCCCCO | -10.1
in CCCCCO | -10
in CCCCO | -9.89
in CCCCOC(C)=O | -11
in CCCCOCCCC | -10.5
in CCCO | -9.96
in CCO | -10
in CCOC(C)=O | -11.1
in CN1CCCC1=O | -11.5
in CO | -9.88
in COC(C)(C)C | -10.7
in COC(C)=O | -11.1
in ClC(Cl)(Cl)Cl | -11
in O | -3.8
in O=C1CCCCC1 | -11.4

CN1CCOCC1
Details | solvation free energy, 298 K [kcal/mol]
in O | -6.32

Cc1ccc(C=O)o1
Details | solvation free energy, 298 K [kcal/mol]
in CCCCCCCC | -4.95
in CCCCCCCCCC | -5.29
in O | -5.5

Cc1c(Cl)c(Cl)c(Cl)c(Cl)c1Cl
Details | solvation free energy, 298 K [kcal/mol]
in CCCCCCCCC=CCCCCCCCC(=O)OCC(COC(=O)CCCCCCCC=CCCCCCCCC)OC(=O)CCCCCCCC=CCCCCCCCC | -9.88
in O | -2.02

C#CCCCC
Details | solvation free energy, 298 K [kcal/mol]
in C1CCC2CCCCC2C1 | -3.68
in C1CCC(C2CCCCC2)CC1 | -3.65
in CN1CCCC1=O | -4.11
in CN(C)C=O | -3.94
in CS(C)=O | -3.55
in N#CCCCCC#N | -3.32
in NCCO | -2.4
in O | 0.29
in O=Cc1ccco1 | -3.57
in OCc1ccco1 | -3.31
in c1ccc2c(c1)CCCC2 | -3.99
in c1ccc(C2CCCCC2)cc1 | -3.88

CCCOC(C)=O
Details | solvation free energy, 298 K [kcal/mol]
in CC(=O)N(C)C | -4.72
in CC(C)CCCC(C)CCCC(C)CCCCC(C)CCCC(C)CCCC(C)C | -3.84
in CCCCC(CC)COC(=O)CCCCC(=O)OCC(CC)CCCC | -4.3
in CCCCCC | -4.03
in CCCCCCC | -4.02
in CCCCCCCC | -4.02
in CCCCCCCCC=CCCCCCCCC(=O)OCC(COC(=O)CCCCCCCC=CCCCCCCCC)OC(=O)CCCCCCCC=CCCCCCCCC | -4.35
in CCCCCCCCCC | -3.96
in CCCCCCCCCCCCCCCC | -3.9
in CCCCCCCCO | -4.33
in CCCCCO | -4.31
in CCCCN(C=O)CCCC | -4.56
in CCOCCO | -4.71
in CN1CCCC1=O | -4.62
in CN1CCCCC1=O | -4.72
in CNC(C)=O | -4.54
in CO | -4.82
in NC=O | -3.72
in O | -2.8
in O=CN1CCOCC1 | -4.42
in [2H]O[2H] | -2.84
